According to patent publication US5935840A, “Activated recombinant adenovirus proteinases” (priority 1995, dated 1999):
Entries after “also recorded” stand apart in the source; their conditions may differ. No end group written: not given here.

How the values were obtained:
[1] = tested on: Ad2 major core protein precursor, pVII; test: Assay of adenovirus proteinase activity in crude extracts: cleavage of [35S]-methionine-labeled pVII (SDS-PAGE, autoradiography); type: biochemical, adenovirus type 2; settings: for Proteinase activity (cleavage of pVII): log phase cells
Experimental: The expression products of the above-described Ad2 and Ad12 proteinase plasmids were tested for their ability to cleave the Ad2 major core protein precursor, pVII, in crude extracts from adenovirus-infected cells. The extracts were obtained from human cells infected with the temperature-sensitive mutant Ad2 strain, H2ts1, which has a defective proteinase. As described below, adenovirus proteinase activity requires the presence of two cofactors. […] The recombinant proteinases were also characterized by peptide sequence analysis of their amino-termini.
Bacterial extracts were incubated with the radiolabeled substrate (pVII). Samples were removed at different times and analyzed by SDS-PAGE and autoradiography. […] Appearance of the processed VII band and concurrent decrease of the precursor pVII band indicates proteinase activity. Radiolabeled proteins of Ad2 virions were run on the gel to indicate the positions of pVII, VII, and other virion components (lane a). Extracts from Ad2 -infected HeLa cells were assayed as a positive control for proteinase activity (lane b).
Adenovirus proteinase activity was monitored by the cleavage of [^35 S]-methionine-labeled major core precursor (pVII) essentially as described (Bhatti and Weber, Biochem. Biophys. Res. Comm. 81: 973-797, (1978)). The proteinase substrate was prepared from Ad2Ad2tsl-infected HeLa cells grown at 39° C. and labeled with [^35 S]-methionine (200 μCi/plate) from approximately 28 to 30 hours after infection. Labeled cultures were harvested, washed twice in Phosphate Buffered Saline (PBS), resuspended in 1.0 ml of 10 mM sodium phosphate buffer, pH 7.4, per plate, and sonicated for 40 seconds using a water-cooled sonicator horn (Branson Sonic Power Co., Danbury, Conn.). The extract was then centrifuged at 12,000×g for 10 minutes, and the pellet was resuspended in 10 mM phosphate buffer.
Extracts of Ad-infected cells, harvested 40 hours after infection at 37° C. were used as a source of viral proteinase. Harvested cultures were washed twice with PBS, resuspended in 10 mM phosphate buffer, frozen and thawed once, and centrifuged at 12,000×g for 10 minutes. Pellets were resuspended in 1.0 ml phosphate buffer, pH 7.4, per 10^6 infected cells and sonicated 4×10 seconds; samples were stored at -70° C. Bacterial extracts were prepared by lysozyme-EDTAtreatment of cultures harvested 2 hours after IPTG induction.
Assays were performed by mixing equal volumes of [^35 S]-labeled substrate and test extract and incubating at 37° C. At different times, 25 μl samples were removed, mixed with 25 μl of SDS Sample Buffer, heated to 90° C., and analyzed by SDS-polyacrylamide gel electrophoresis and autoradiography as described (Anderson et al., J. Virol. 12: 241-252 (1973).
Recombinant proteinase polypeptides were assayed for proteinase activity by incubating whole-cell extracts of BL21 (DE3), pT7AD23K5/BL21(DE3), and pT7AD23k6/BL21(DE3), prepared as described above, with extracts of [^35 S]-methionine-labeled Ad2 virion precursor polypeptides. Incubation of the labeled extract at 37° C. for up to 20 hours, alone or with an extract prepared from uninfected HeLa cells, produced little change in the pattern of labeled polypeptides.

[2] = target: T1, Ad2 proteinase (rEP protein) (Human adenovirus C serotype 2, UniProt P03252); type: biochemical, human adenovirus type 2; settings: for Rate (pmol substrate min^-1) / Stimulation (fold): rate in presence of effector divided by rate in its absence: 8.3 nM rEP protein, 98 nM pVIc peptide; for Rate (pmol substrate min^-1): 1 μM (Leu-Arg-Gly-Gly-NH)2-rhodamine, effector at concentration giving maximal stimulation; for Stimulation (fold): rate in presence of effector divided by rate in its absence: 1 μM substrate; for Effector concentration that gave maximal stimulation of proteinase activity: moles of molecules per liter, 8.3 nM rEP, 98 nM pVIc
T1 construct: Plasmid pT7AD23k6 contains the 204 codons of the Ad2 proteinase reading frame plus a translational termination codon; made in house; host or cells: E. coli BL21(DE3)
T1 sequence (P03252 whole entry): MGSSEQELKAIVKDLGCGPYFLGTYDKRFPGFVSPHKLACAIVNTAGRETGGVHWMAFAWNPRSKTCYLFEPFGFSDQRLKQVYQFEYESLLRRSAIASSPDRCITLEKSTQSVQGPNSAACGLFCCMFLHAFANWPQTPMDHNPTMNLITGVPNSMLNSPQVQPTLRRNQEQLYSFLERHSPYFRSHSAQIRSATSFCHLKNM
Description: The nature of the proteinase cofactor(s) was pursued with the aid of the second assay, which utilizes the substrate (Leu-Arg-Gly-Gly-NH)2 -rhodamine. The design of this substrate was based on two facts. (1) It was known that the proteinase present in disrupted Ad2 virions would cleave small peptides with sequence similar to that found at natural cleavage sites in adenovirus virion precursors (Webster et al., 1989). (2) Cleavage of either tetra-peptide sequence from the substituted rhodamine substrate produces a very large increase, up to a 3500-fold, in fluorescence. Under conditions where only a small fraction of the rhodamine substrate is cleaved, the increase in fluorescence is proportional to the amount of proteinase present and to the time of incubation. Thus, the fluorescence assay provides a quantitative method for assessing proteinase activity that is more sensitive convenient and rapid than the gel electrophoresis assay.
After determining the identity of the two cofactors, reconstitution of adenovirus proteinase activity in vitro with purified components was accomplished. […] In (a), Assays in 1 ml contained 1.2 nM rEP protein, 11.9 pM Ad2 DNA and the indicated concentrations of pVI-c peptide. The rate of substrate hydrolysis is the rate in the reaction minus the rate with the rEP protein and Ad2 DNA alone which was 0.068 pmol min^-1. In (b), Assays in 1 ml contained 1.2 nM rEP protein, 36 nM pVI-c peptide and the indicated concentrations of Ad2 DNA. The rate of substrate hydrolysis is the rate in the reaction minus the rate with the rEP protein and pVI-c alone which was 2.76 pmol min^-1. The concentration of (Leu-Arg-Gly-Gly-NH)2 -rhodamine was 5 μM, and its rate of hydrolysis to Leu-Arg-Gly-Gly-NH-rhodamine was determined by measuring the increase in fluorescence every 3 minutes for 15 minutes. The pVI-c peptide was assembled in a peptide synthesizer.
Assays were performed in 400 μl of Assay Buffer (50 mM Tris-HCl, pH 7.4, 25 mM NaCl, 10 mM octylglucoside, and 1 mM dithiothreitol). The concentration of the fluorogenic substrate, (Leu-Arg-Gly-Gly-NH)2 -rhodamine was 5 μM. When present, the number of disrupted virus particles was 10^10 and the amount of recombinant proteinase was 0.12 mAU280 nm. […] After 30 minutes at 37° C., a 360 μl aliquot of the reaction was added to 340 μl of Assay Buffer minus octylglucoside, and the increase in fluorescence was measured. The excitation wavelength was 492 nm and the emission wavelength was 523 nm, both with a bandwidth of 5 nm. The change in fluorescence, ΔF, is the magnitude of the fluorescence from the sample minus the magnitude of the fluorescence from an identical solution without enzyme.
DNase-treated disrupted virus was obtained by incubating 2×10^10 disrupted virions in 20 μl containing 0.1M NaAc, pH 5.0, 5 mM MgCl2, and 55 μg/ml DNase I for 4 minutes at 25° C. Then, EDTA to 23 mM and dithiothreitol to 2.3 mM were added, and the reactions were heated at 56° C. for 1 minute to inactivate the DNase.
For the assays shown in FIG. 8, the DNase reactions were diluted by the addition of 380 μl Assay Buffer containing the substrate, the proteinase and either 2×10^10 molecules of Ad2 DNA (+) or no DNA (-). After 30 minutes at 37° C., 360 μl of the reactions were added to 340 μl Assay Buffer minus octylglucoside and the increase in fluorescence was measured. The assays in (B) and (C) were identical to those in (A) except that in (B) H2ts1 virus was added after the DNase was inactivated (i-DNase) and in (C) no Dnase was present. In (D) recombinant proteinase plus 10^10 molecules of Ad2 DNA were preincubated for 10 minutes at 37° C. before adding substrate.
.dagger. All assays contained 8.3 nM rEP protein, 98 nM pVIc peptide, and
1 μM (Leu--Arg--Gly--Gly--NH)2rhodamine. The rate of substrate

[3] = tested on: HEP1DBP; test: Cleavage of artificial protein substrate HEP1DBP (SDS-polyacrylamide gel electrophoresis); type: biochemical
Description: Recombinant protein substrates that resemble natural virion precursors, such as pVI, can be produced in E. coli by genetic engineering methods similar to those used for expression of recombinant adenovirus proteinase. The recombinant substrate may have an artificial leader sequence that can be removed by proteinase-mediated cleavage. The leader can be designed to aid in purification of the substrate; thus the recombinant substrate can be produced and purified much more efficiently than natural adenovirus substrates. Recombinant protein substrates also serve as prototypes of potential commercial products, showing that the adenovirus proteinase will remove an artificial leader sequence from a recombinant protein that is not related to any adenovirus protein. The first artificial protein substrate was called HEP1DBP. It consists of a 17 amino acid leader (Met-Ala-Ser-Met-Thr-Gly-His-His-His-His-His-His-Gly-Met-Ser-Gly-Gly-) (SEQ ID NO: 37) attached to the initiating methionine of the 232 amino acid DNA binding protein (DBP), of bacteriophage T7. The T7 DBP is the product of gene 2.5. The recombinant proteinase substrate is produced by induction of a pET expression plasmid called pT7HEP1DBP (also called pT7HIS2) (FIG. 7A and Example 11); the predicted sequence of the expressed substrate is given in Table 1. The leader sequence contains six consecutive histidine residues to permit purification by metal affinity chromatography in a manner analogous to purification of the adenovirus proteinase. Immediately preceding the methionine corresponding to the initiation site of the T7 DBP is the tetra-amino acid element -Met-Ser-Gly-Gly- (SEQ ID NO: 38). This segment corresponds to the proteinase recognition sequence in the adenovirus virion precursor polypeptide pVI. The size of the leader sequence was chosen so that the substrate precursor HEP1DBP, and the predicted major product after cleavage, the T7 DBP, could easily be distinguished by SDS-polyacrylamide gel electrophoresis.
When purified HEP1DBP was incubated with disrupted wild-type adenovirus 2 virions, it was cleaved, as determined from the change in its mobility during SDS-polyacrylamide gel electrophoresis. No cleavage was observed when incubation was with disrupted H2ts1 virions alone.
Plasmid pT7HEP1DBP (5346 bp) is a pET-3 derivative that expresses the […] T7 gene 2.5 protein (a single-stranded DNA binding protein) attached to a 17-amino acid leader sequence (FIG. 19). The 249-amino acid HEP1DBP polypeptide serves as an artificial substrate for the adenovirus EP; the leader peptide, MASMTGHHHHHHGMSGG- (SEQ ID NO: 37), ends with the Ad2 proteinase recognition sequence -MSGG- (SEQ ID NO: 38) [Anderson, C. […]

| Compound | Activity/Conditions ([1]; Induced, log phase) | Proteinase activity (cleavage of pVII) ([1]; extracts of IPTG-induced) | Rate (pmol substrate min^-1) [2] [pmol substrate min^-1] | Stimulation (fold): rate in presence of effector divided by rate in its absence [2] [fold] | Effector concentration that gave maximal stimulation of proteinase activity [2] [nM] | further results |
| --- | --- | --- | --- | --- | --- | --- |
| 23K13: Ad2 proteinase variant with GHHHHHHNM at carboxy-terminus | Active | as active as 23k6 |  |  |  |  |
| N[C@@H](CC(=O)O)C(=O)O [Aspartic acid] |  |  | 2.1 | < 1.0 | 1380 |  |
| N[C@@H](CCC(=O)O)C(=O)O [Glutamic acid] |  |  | 2.3 | < 1.0 | 780 |  |
| H2ts1: ts Ad2 proteinase with P to L mutation in codon 137, expressed from pT7AD23K18 |  |  |  |  |  | Activity/Conditions ([1]; no growth conditions printed): Temperature-; EP activity ([3]; DEAE flow-through fractions from pT7AD23K18/BL21(DE3) grown at 30° C., in the presence of H2ts1 virions, substrate not stated): No EP activity |
| CGYGPKKKRKVGG [peptide similar in character to pVI-c] |  |  |  |  |  | Substitution for the pVI-c peptide as cofactor [2]: did not substitute |
| 23K10: recombinant Ad2 proteinase from pT7AD23K10, same reading frame as pT7AD23k6 | Active | active |  |  |  |  |
| Heparin |  |  | 12.9 | 4.7 | 33 | Substitution for Ad2 DNA as cofactor of proteinase activity ([2]; in vitro): substituted for Ad2 DNA |
| 23K8: recombinant wild-type Ad2 proteinase from pT7AD23K8 (gene with AflII site) | Active | active |  |  |  | Cleavage of HEP1DBP ([3]; incubated together with disrupted H2ts1 virions): cleavage was obtained; Cleavage of HEP1DBP ([3]; incubated with HEP1DBP alone, no added cofactors): no cleavage |
| 23K11: Ad2 proteinase variant, E5 QELKAIVK13 deleted, 194 amino acids |  | not active |  |  |  | Proteinase activity (cleavage of pVII) ([1]; either uninduced, stationary or induced): No processing activity was detected; also recorded: No proteinase activity; Activity/Conditions ([1]; no growth conditions printed): Inactive |
